Earlier results as cited in patent US8637310B2, “Use of a rock inhibitor to sustain primary human keratinocytes in a proliferative state” (The United States of America, as represented by the …, priority 2008, dated 2014).

Tested on: airway epithelial cells
Conditions: Moore et al. 2004; cited from earlier work

For `O=S(=O)(c1cccc2cnccc12)N1CCCNCC1` [HA 1077], the “effect on airway epithelial cells” value is listed as “induces membrane ruffling, loss of actin stress fibers and apoptosis”.
